One test has as its system HCV. The experiment in a line: Relative (synergistic) activity of separated diastereomers. Type of test: cell-based, Hepatitis C virus. The note with it: comparison within the set of three diastereomers; first eluting isomer.
For test [1], the system named is HCV genotype-1a variant with glutamine 30 changed to glutamate in the NS5A protein. The following applies: genotype-1a Q30E NS5A variant, cited from earlier work.
Test [2] shares this test system. It counts as cell-based, Hepatitis C virus. The following applies: genotype-1a Q30E; BMS-790052 titrated with 200 nM P-55 versus singly. An excerpt: The NS5A synergistic inhibitory effect of test compounds can be determined using various amounts of an NS5A-targeting compound with titration of a second compound of interest. […] The test compound can be chosen from compounds listed above or from others present in the literature.

Read-outs that look alike come from different tables or passages of the source.

As for `CN(C)C(=O)OC(C)(C(=O)N[C@H](c1ncc(-c2ccc(-c3ccc(-c4cnc([C@@H](NC(=O)C(C)(OC(=O)N(C)C)C(C)(C)CF)C(C)(C)C)[nH]4)cc3)cc2)[nH]1)C(C)(C)C)C(C)(C)CF` (single isomer, unassigned) [Example Y1], the “activity relative to the other separated diastereomers” value in the test with HCV is recorded as “most active of the set”. Turning to `CC(C)(C)[C@H](NC(=O)C(C)(OC(=O)N1CCC1)C1(C)CC1)c1nc(-c2ccc(-c3ccc(-c4c[nH]c([C@@H](NC(=O)C(C)(OC(=O)N5CCC5)C5(C)CC5)C(C)(C)C)n4)cc3)cc2)c[nH]1` (stereo partly shown) [Example Y19a], the “activity relative to the other separated diastereomers” value in the test with HCV is “most synergistically active of the three”.

In the case of `COC(=O)N1CC(F)(F)CC1(C)C(=O)N[C@H](c1nc2ccc(-c3cnc(-c4ccc5nc([C@@H](NC(=O)C6(C)CC(F)(F)CN6C(=O)OC)C(C)(C)C)[nH]c5c4)cn3)cc2[nH]1)C(C)(C)C` (stereo partly shown) [Example Y20], the “activity relative to the other separated diastereomers” value in the test on HCV was “most synergistically active of the three”. In general, EC50 refers to the concentration that produces a half-maximal response. With `COC(=O)N[C@H](C(=O)N1CCC[C@H]1c1nc(-c2ccc(-c3ccc(-c4c[nH]c([C@@H]5CCCN5C(=O)[C@@H](NC(=O)OC)C(C)C)n4)cc3)cc2)c[nH]1)C(C)C` [BMS-790052], the EC50 was about 2 nM in test [1] (P-55 fixed at 200 nM, read-out: EC50 of BMS-790052 in the presence of a fixed amount of P-55) and about 200 nM in test [1] (single agent, read-out: EC50, compound titrated singly). Further, the “reciprocal synergistic inhibitory effect for the combination” value in test [2] was about 100 fold. With `CC(C)(C)[C@H](NC(=O)C1(CO)OC2CCC1CC2)c1nc(-c2ccc(-c3ccc(-c4c[nH]c([C@@H](NC(=O)C5(CO)OC6CCC5CC6)C(C)(C)C)n4)cc3)cc2)c[nH]1` (single isomer, unassigned) [Example Y14], the “activity relative to the other separated diastereomers” value in the test with HCV was “most active isomer”.

Values taken from patent US10617675B2, “Hepatitis C virus inhibitors” (BRISTOL-MYERS SQUIBB COMPANY, priority 2015, dated 2020).
